Here are results for nine compounds from paper PMC7915185 (Molecules, 2021).

For assay [1], the target named is T1, H1N1 (A/WSN/1933) hemagglutinin (HA) protein (Influenza A virus, UniProt P03454).
T1 construct: purchased Sino Biological Inc. (Beijing, China)
The assay is described as follows: biochemical. In kind it is binding, influenza virus H1N1 (A/WSN/1933).

Assay [2] deals with H5N1 (A/Hong Kong/483/97) hemagglutinin (HA) protein (Influenza A virus, UniProt Q77XR4). It is filed as binding, influenza virus H5N1 (A/Hong Kong/483/97). The note with it: pH 7.4.
The test system of assay [3] is HA. The following applies: in our previous work; cited from earlier work.

Turning to `C=C(C)[C@@H]1CC[C@]2(C(=O)O)CC[C@]3(C)[C@H](CC[C@@H]4[C@@]5(C)CC[C@H](O)C(C)(C)[C@@H]5CC[C@]43C)[C@@H]12` [BA, betulinic acid], the “thermodynamic dissociation constant KD” value in assay [1] (pH 7.4) is listed as “no affinity”; in assay [2] it was “no significant affinity”. Compound `C[C@H]1[C@H](C)CC[C@]2(C(=O)O)CC[C@]3(C)C(=CC[C@@H]4[C@@]5(C)CC[C@H](O)C(C)(C)[C@@H]5CC[C@]43C)[C@H]12` [UA, ursolic acid] displayed a Kd in assay [1] of 137 µM. Further, in assay [2], the “thermodynamic dissociation constant KD” value is recorded as “no significant affinity”.

Regarding `CC1(C)[C@@H](O)CC[C@]2(C)[C@H]3C(=O)C=C4[C@@H]5C[C@@](C)(C(=O)O)CC[C@]5(C)CC[C@@]4(C)[C@]3(C)CC[C@@H]12` [GA, glycyrrhetinic acid], in assay [1], binding was put at a Kd of 584 µM. For the same compound, in assay [2], the “thermodynamic dissociation constant KD” value is given as “no significant affinity”.

The compound `CC(=O)N[C@@H]1[C@@H](O)[C@H](O[C@@H]2O[C@H](CO)[C@@H](O[C@@H]3O[C@H](CO[C@H]4O[C@H](CO)[C@@H](O)[C@H](O)[C@@H]4O[C@@H]4O[C@H](CO)[C@@H](O[C@@H]5O[C@H](CO[C@]6(C(=O)O)C[C@H](O)[C@@H](NC(C)=O)[C@H]([C@H](O)[C@H](O)CO)O6)[C@H](O)[C@H](O)[C@H]5O)[C@H](O)[C@H]4NC(C)=O)[C@@H](O)[C@H](O[C@H]4O[C@H](CO)[C@@H](O)[C@H](O)[C@@H]4O[C@@H]4O[C@H](CO)[C@@H](O[C@@H]5O[C@H](CO[C@]6(C(=O)O)C[C@H](O)[C@@H](NC(C)=O)[C@H]([C@H](O)[C@H](O)CO)O6)[C@H](O)[C@H](O)[C@H]5O)[C@H](O)[C@H]4NC(C)=O)[C@@H]3O)[C@H](O)[C@H]2NC(C)=O)[C@@H](CO)O[C@H]1NC(=O)C[C@H](NC(=O)CCc1cn(CCOCCOCCOCCOCCOCCOC(=O)[C@]23CCC(C)(C)C[C@H]2C2=CC[C@@H]4[C@@]5(C)CC[C@H](O)C(C)(C)[C@@H]5CC[C@@]4(C)[C@]2(C)CC3)nn1)C(=O)O` [SCT-Asn-OA] had a Kd in assay [1] of 11.2 µM. `CC(=O)N[C@@H]1[C@@H](O)[C@H](O[C@@H]2O[C@H](CO)[C@@H](O[C@@H]3O[C@H](CO[C@H]4O[C@H](CO)[C@@H](O)[C@H](O)[C@@H]4O[C@@H]4O[C@H](CO)[C@@H](O[C@@H]5O[C@H](CO[C@]6(C(=O)O)C[C@H](O)[C@@H](NC(C)=O)[C@H]([C@H](O)[C@H](O)CO)O6)[C@H](O)[C@H](O)[C@H]5O)[C@H](O)[C@H]4NC(C)=O)[C@@H](O)[C@H](O[C@H]4O[C@H](CO)[C@@H](O)[C@H](O)[C@@H]4O[C@@H]4O[C@H](CO)[C@@H](O[C@@H]5O[C@H](CO[C@]6(C(=O)O)C[C@H](O)[C@@H](NC(C)=O)[C@H]([C@H](O)[C@H](O)CO)O6)[C@H](O)[C@H](O)[C@H]5O)[C@H](O)[C@H]4NC(C)=O)[C@@H]3O)[C@H](O)[C@H]2NC(C)=O)[C@@H](CO)O[C@H]1NC(=O)C[C@H](NC(=O)CCc1cn(CCOCCOCCOCCOCCOCCOC(=O)[C@]23CC[C@@H](C)[C@H](C)[C@H]2C2=CC[C@@H]4[C@@]5(C)CC[C@H](O)C(C)(C)[C@@H]5CC[C@@]4(C)[C@]2(C)CC3)nn1)C(=O)O` [SCT-Asn-UA] registered a Kd in assay [1] of 289 µM.

In assay [1], `CC(=O)N[C@@H]1[C@@H](O)[C@H](O[C@@H]2O[C@H](CO)[C@@H](O[C@@H]3O[C@H](CO[C@H]4O[C@H](CO)[C@@H](O)[C@H](O)[C@@H]4O[C@@H]4O[C@H](CO)[C@@H](O[C@@H]5O[C@H](CO[C@]6(C(=O)O)C[C@H](O)[C@@H](NC(C)=O)[C@H]([C@H](O)[C@H](O)CO)O6)[C@H](O)[C@H](O)[C@H]5O)[C@H](O)[C@H]4NC(C)=O)[C@@H](O)[C@H](O[C@H]4O[C@H](CO)[C@@H](O)[C@H](O)[C@@H]4O[C@@H]4O[C@H](CO)[C@@H](O[C@@H]5O[C@H](CO[C@]6(C(=O)O)C[C@H](O)[C@@H](NC(C)=O)[C@H]([C@H](O)[C@H](O)CO)O6)[C@H](O)[C@H](O)[C@H]5O)[C@H](O)[C@H]4NC(C)=O)[C@@H]3O)[C@H](O)[C@H]2NC(C)=O)[C@@H](CO)O[C@H]1NC(=O)C[C@H](NC(=O)CCc1cn(CCOCCOCCOCCOCCOCCOC(=O)[C@@]2(C)CC[C@]3(C)CC[C@]4(C)C(=CC(=O)[C@@H]5[C@@]6(C)CC[C@H](O)C(C)(C)[C@@H]6CC[C@]54C)[C@@H]3C2)nn1)C(=O)O` [SCT-Asn-GA] gave a dissociation constant (Kd) of 16.4 µM. Take Sialylglycopeptide [SGP]: the “thermodynamic dissociation constant KD” value in assay [2] is “no affinity”. Further, the “affinity to HA (SPR)” value in assay [3] was “no affinity”. In assay [1], `C=C(C)[C@@H]1CC[C@]2(C(=O)OCCOCCOCCOCCOCCOCCn3cc(CCC(=O)N[C@@H](CC(=O)N[C@@H]4O[C@H](CO)[C@@H](O[C@@H]5O[C@H](CO)[C@@H](O[C@@H]6O[C@H](CO[C@H]7O[C@H](CO)[C@@H](O)[C@H](O)[C@@H]7O[C@@H]7O[C@H](CO)[C@@H](O[C@@H]8O[C@H](CO[C@]9(C(=O)O)C[C@H](O)[C@@H](NC(C)=O)[C@H]([C@H](O)[C@H](O)CO)O9)[C@H](O)[C@H](O)[C@H]8O)[C@H](O)[C@H]7NC(C)=O)[C@@H](O)[C@H](O[C@H]7O[C@H](CO)[C@@H](O)[C@H](O)[C@@H]7O[C@@H]7O[C@H](CO)[C@@H](O[C@@H]8O[C@H](CO[C@]9(C(=O)O)C[C@H](O)[C@@H](NC(C)=O)[C@H]([C@H](O)[C@H](O)CO)O9)[C@H](O)[C@H](O)[C@H]8O)[C@H](O)[C@H]7NC(C)=O)[C@@H]6O)[C@H](O)[C@H]5NC(C)=O)[C@H](O)[C@H]4NC(C)=O)C(=O)O)nn3)CC[C@]3(C)[C@H](CC[C@@H]4[C@@]5(C)CC[C@H](O)C(C)(C)[C@@H]5CC[C@]43C)[C@@H]12` [SCT-Asn-BA] registered an equilibrium dissociation constant (Kd) of 6.89 µM. On to `CC1(C)CC[C@]2(C(=O)O)CC[C@]3(C)C(=CC[C@@H]4[C@@]5(C)CC[C@H](O)C(C)(C)[C@@H]5CC[C@]43C)[C@@H]2C1` [OA, oleanolic acid], for which the Kd in assay [1] turned out to be 31.1 µM.
